In US20230061835A1, “11-OXO CUCURBITANES AND THEIR USE AS FLAVOR MODIFIERS” (Firmenich SA, priority 2020, published 2023):

Columns and labels:
[1] = Sensory testing by trained panel: umami taste; assay type: in vivo, human; settings: panel of 20 trained panelists; test compound at 40 ppm; score on scale −5 (strong masking) to 5 (strong enhancing), 0 = reference water solution with 0.25% NaCl and 0.05% MSG
Method: (§1) Each of Compound 101, Compound 102, Compound 103, Compound 104, and Compound 105 was tested for taste properties, particularly umami and saltiness. A panel of twenty (20) trained panelists evaluated the samples of each test compound at 40 ppm for umami taste properties and saltiness taste properties, and scored the solutions on a scale ranging from −5 to 5 (with −5 denoting a strong masking effect, and 5 denoting a strong enhancing effect, and 0 representing the intensity of a reference water solution containing 0.25% sodium chloride (NaCl) and 0.05% monosodium glutamate (MSG), respectively).

[2] = Sensory testing by trained panel: saltiness taste; assay type: in vivo, human; settings: panel of 20 trained panelists; test compound at 40 ppm; score on scale −5 (strong masking) to 5 (strong enhancing), 0 = reference water solution with 0.25% NaCl and 0.05% MSG
Method: as §1

| SMILES | Umami [1] | Saltiness [2] |
| --- | --- | --- |
| C[C@H](CC[C@@H](O[C@@H]1O[C@H](CO[C@@H]2O[C@H](CO)[C@@H](O)[C@H](O)[C@H]2O)[C@@H](O)[C@H](O)[C@H]1O[C@@H]1O[C@H](CO)[C@@H](O)[C@H](O)[C@H]1O)C(C)(C)O)[C@H]1CC[C@@]2(C)[C@@H]3CC=C4[C@@H](CC[C@H](O[C@@H]5O[C@H](CO[C@@H]6O[C@H](CO)[C@@H](O)[C@H](O)[C@H]6O)[C@@H](O)[C@H](O)[C@H]5O)C4(C)C)[C@]3(C)C(=O)C[C@]12C [Compound 101] | 0.88 | 0.19 |
| C[C@H](CC[C@@H](O[C@@H]1O[C@H](CO)[C@@H](O)[C@H](O)[C@H]1O)C(C)(C)O)[C@H]1CC[C@@]2(C)[C@@H]3CC=C4[C@@H](CC[C@H](O[C@@H]5O[C@H](CO)[C@@H](O)[C@H](O)[C@H]5O)C4(C)C)[C@]3(C)C(=O)C[C@]12C [Compound 105] | 0.10 | 0.20 |
| C[C@H](CC[C@@H](O[C@@H]1O[C@H](CO)[C@@H](O)[C@H](O)[C@H]1O[C@@H]1O[C@H](CO)[C@@H](O)[C@H](O)[C@H]1O)C(C)(C)O)[C@H]1CC[C@@]2(C)[C@@H]3CC=C4[C@@H](CC[C@H](O[C@@H]5O[C@H](CO)[C@@H](O)[C@H](O)[C@H]5O)C4(C)C)[C@]3(C)C(=O)C[C@]12C [Compound 104] | 0.42 | −0.08 |
| C[C@H](CC[C@@H](O[C@@H]1O[C@H](CO[C@@H]2O[C@H](CO)[C@@H](O)[C@H](O)[C@H]2O)[C@@H](O)[C@H](O)[C@H]1O[C@@H]1O[C@H](CO)[C@@H](O)[C@H](O)[C@H]1O)C(C)(C)O)[C@H]1CC[C@@]2(C)[C@@H]3CC=C4[C@@H](CC[C@H](O[C@@H]5O[C@H](CO[C@@H]6O[C@H](CO)[C@@H](O)[C@H](O)[C@H]6O)[C@@H](O)[C@H](O)[C@H]5O[C@@H]5O[C@H](CO)[C@@H](O)[C@H](O)[C@H]5O)C4(C)C)[C@]3(C)C(=O)C[C@]12C [Compound 102] | 0.47 | 0.87 |
| C[C@H](CC[C@@H](O[C@@H]1O[C@H](CO)[C@@H](O)[C@H](O)[C@H]1O[C@@H]1O[C@H](CO)[C@@H](O)[C@H](O)[C@H]1O)C(C)(C)O)[C@H]1CC[C@@]2(C)[C@@H]3CC=C4[C@@H](CC[C@H](O[C@@H]5O[C@H](CO[C@@H]6O[C@H](CO)[C@@H](O)[C@H](O)[C@H]6O)[C@@H](O)[C@H](O)[C@H]5O)C4(C)C)[C@]3(C)C(=O)C[C@]12C [Compound 103] | 0.69 | −0.02 |
